Measurements published in patent EP3478687B1 (Daewoong Pharmaceutical Co., Ltd., priority 2016, dated 2018).

Legend:
[1] = molecular target: T1, Recombinant purified human JAK3 (Homo sapiens, UniProt P52333); assay: JAK3 kinase inhibitory activity, ADP-Glo kinase assay (Promega V9441); type: biochemical; conditions: for IC50: ATP 5 uM, 4 ng JAK3 per reaction, 1 hour 30 °C, chemiluminescence; for inhibition at 0.1 µM: @100nM compound
T1 construct: purchased Promega V9441
T1 sequence (P52333 1-1124): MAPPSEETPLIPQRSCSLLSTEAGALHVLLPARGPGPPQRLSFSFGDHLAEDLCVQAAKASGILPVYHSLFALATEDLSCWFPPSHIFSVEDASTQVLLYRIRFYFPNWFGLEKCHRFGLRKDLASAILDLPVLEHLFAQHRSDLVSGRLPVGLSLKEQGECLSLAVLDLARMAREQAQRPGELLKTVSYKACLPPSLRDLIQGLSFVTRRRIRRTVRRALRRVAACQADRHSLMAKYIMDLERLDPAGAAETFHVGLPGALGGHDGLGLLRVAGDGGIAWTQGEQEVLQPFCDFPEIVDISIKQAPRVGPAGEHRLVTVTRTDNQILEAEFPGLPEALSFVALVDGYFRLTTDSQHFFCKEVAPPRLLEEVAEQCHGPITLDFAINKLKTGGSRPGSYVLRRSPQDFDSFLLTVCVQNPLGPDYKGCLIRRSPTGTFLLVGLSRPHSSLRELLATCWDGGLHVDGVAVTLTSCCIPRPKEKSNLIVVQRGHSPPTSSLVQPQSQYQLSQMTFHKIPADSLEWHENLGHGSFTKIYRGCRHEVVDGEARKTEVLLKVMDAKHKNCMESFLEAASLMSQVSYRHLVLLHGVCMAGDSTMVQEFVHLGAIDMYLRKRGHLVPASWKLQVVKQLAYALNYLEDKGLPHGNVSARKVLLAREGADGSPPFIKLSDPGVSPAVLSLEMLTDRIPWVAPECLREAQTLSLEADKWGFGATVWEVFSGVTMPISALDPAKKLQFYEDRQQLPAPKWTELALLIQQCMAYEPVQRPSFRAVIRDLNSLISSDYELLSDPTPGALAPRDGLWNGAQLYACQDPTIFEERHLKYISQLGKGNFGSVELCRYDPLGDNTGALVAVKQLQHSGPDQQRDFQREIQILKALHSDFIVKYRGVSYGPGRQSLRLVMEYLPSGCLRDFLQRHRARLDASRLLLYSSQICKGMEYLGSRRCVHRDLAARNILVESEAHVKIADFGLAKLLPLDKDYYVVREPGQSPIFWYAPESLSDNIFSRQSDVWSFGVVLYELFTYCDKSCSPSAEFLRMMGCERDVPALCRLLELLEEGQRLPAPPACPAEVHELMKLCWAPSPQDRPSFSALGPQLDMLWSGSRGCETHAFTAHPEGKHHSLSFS
Procedure: (§1) JAK3 and BTK kinase inhibitory activities were measured for the compounds prepared in the above Examples through in vitro analysis on the ADP Glow (Glo) platform.
(§2) Specifically, the inhibitory activities of JAK3 and BTK kinase were measured using a JAK3 kinase assay kit (Promega, V9441) and a BTK kinase assay kit (Promega, V9071) which were purchased from Promega. Recombinant purified human JAK3 and BTK were diluted with 1 x kinase reaction buffer (JAK3: 40 mM Tris-Cl, pH 7.5, 20 mM MgCh, 0.1 mg/mL BSA and 50 uM DTT / BTK: 40 mM Tris-Cl, pH 7.5, 20 mM MgCl2, 0.1 mg/mL BSA, 2 mM MnCl2 and 50 uM DTT) and added to a 96 well plate (JAK3: final concentration of 4 ng per reaction/BTK: final concentration of 8 ng per reaction). The compounds were treated so as to be finally a 1% DMSO aqueous solution, and a substrate cocktail containing ATP (JAK3: final concentration of 5 uM / BTK: final concentration of 10 uM) and 0.2 µg/µL of Poly(Glu4, Tyr1) peptide (JAK3 and BTK final concentration) in the total 25 µL reactants was added to a 96-well plate to initiate enzymatic reaction. After incubation (30 °C) for 1 hour, equivalent volume (25 µL per reaction) of ADP Glo was added and incubated (30 °C) for 40 minutes at room temperature. Then, a kinase detection reagent (50 µL per reaction) was added and incubated (30 °C) for 30 minutes at room temperature. The kinase activity was measured by chemiluminescence according to the instructions of ADP Glo kinase assay kit, and the inhibitory activity of the compounds according to the present invention was calculated. For the analysis of the results of each compound, Microsoft Excel was used, and IC50 values were calculated by SigmaPlot software.

[2] = molecular target: T2, Recombinant purified human BTK (Homo sapiens, UniProt Q06187); assay: BTK kinase inhibitory activity, ADP-Glo kinase assay (Promega V9071); type: biochemical; conditions: for IC50: ATP 10 uM, 8 ng BTK per reaction, 1 hour 30 °C, chemiluminescence; for inhibition at 0.1 µM: @100nM compound; for inhibition at 1 µM: @1uM compound
T2 construct: purchased Promega V9071
Procedure: as §1, §2

[3] = printed in the JAK3 IC50 column

T2 sequence (Q06187 whole entry): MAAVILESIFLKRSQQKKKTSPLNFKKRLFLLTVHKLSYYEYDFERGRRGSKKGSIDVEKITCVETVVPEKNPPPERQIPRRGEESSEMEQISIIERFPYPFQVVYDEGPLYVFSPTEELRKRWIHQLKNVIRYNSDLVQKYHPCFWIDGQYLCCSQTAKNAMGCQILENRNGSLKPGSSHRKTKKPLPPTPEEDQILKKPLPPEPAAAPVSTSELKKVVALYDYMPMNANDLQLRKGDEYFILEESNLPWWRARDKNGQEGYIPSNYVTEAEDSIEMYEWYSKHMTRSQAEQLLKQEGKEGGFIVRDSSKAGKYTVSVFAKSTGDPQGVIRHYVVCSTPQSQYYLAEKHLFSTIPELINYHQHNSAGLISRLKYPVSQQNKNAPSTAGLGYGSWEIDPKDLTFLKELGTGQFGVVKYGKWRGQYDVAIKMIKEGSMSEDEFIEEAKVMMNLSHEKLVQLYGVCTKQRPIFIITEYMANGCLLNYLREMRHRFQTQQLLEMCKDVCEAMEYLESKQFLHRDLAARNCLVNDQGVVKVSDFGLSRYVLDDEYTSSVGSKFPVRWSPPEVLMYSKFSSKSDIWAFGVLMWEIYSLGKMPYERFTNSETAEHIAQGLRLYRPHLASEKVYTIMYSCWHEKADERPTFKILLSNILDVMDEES

IC50 [1] [nM]	IC50 [2] [nM]	SMILES	other results
0.4	4.5	C=CC(=O)N1CCC[C@@H](Nc2nc(Nc3cnn(CC)c3)nc3[nH]ccc23)C1 [Example 21, (R)-1-(3-(2-(1-ethyl-1H-pyrazol-4-ylamino)-7H-pyrrolo[2,3-d]pyrimidin-4-ylamino)piperidin-1-yl)prop-2-en-1-one]	–
11.2	–	CC#CC(=O)N1CCC[C@@H](Nc2nc(Nc3cnn(CC(F)F)c3)nc3[nH]ccc23)C1 [Example 25, (R)-1-(3-(2-(1-(2,2-difluoroethyl)-1H-pyrazol-4-ylamino)-7H-pyrrolo[2,3-d]pyrimidin-4-ylamino)piperidin-1-yl)but-2-yn-1-one]	inhibition at 0.1 µM [2]: 39.3%
186	–	C[C@@H]1CCN(C(=O)CC#N)C[C@@H]1N(C)c1nc(Nc2ccc(N3CCN(C)CC3)cc2)nc2[nH]ccc12 [Example 28, 3-((3R,4R)-4-methyl-3-(methyl(2-(4-(4-methylpiperazin-1-yl)phenylamino)-7H-pyrrolo[2,3-d]pyrimidin-4-yl)amino)piperidin-1-yl)-3-oxopropanenitrile]	inhibition at 1 µM [2]: 3.3%
3.4	2.2	C=CC(=O)N1CCC[C@@H](Nc2nc(Nc3cnn(CC(F)F)c3)nc3[nH]ncc23)C1 [Example 31, (R)-1-(3-(6-(1-(2,2-difluoroethyl)-1H-pyrazol-4-ylamino)-1H-pyrazolo [3,4-d]pyrimidin-4-ylamino)piperidin-1-yl)prop-2-en-1-one]	–
10.7	2.8	C=CC(=O)N1CCC[C@@H](Nc2nc(Nc3cnn(C)c3)nc3[nH]ncc23)C1 [Example 32, (R)-1-(3-(6-(1-methyl-1H-pyrazol-4-ylamino)-1H-pyrazolo[3,4-d]pyrimidin-4-ylamino)piperidin-1-yl)prop-2-en-1-one]	–
3.4	2.1	C=CC(=O)N1CCC[C@@H](Nc2nc(Nc3cnn(C(F)F)c3)nc3[nH]ncc23)C1 [Example 34, (R)-1-(3-(6-(1-(difluoromethyl)-1H-pyrazol-4-ylamino)-1H-pyrazolo [3,4-d]pyrimidin-4-ylamino)piperidin-1-yl)prop-2-en-1-one]	–
0.1	1.9	C=CC(=O)N1CCC[C@@H](Nc2nc(Nc3cnn(CC(F)F)c3)nc3[nH]cc(Cl)c23)C1 [Example 39, (R)-1-(3-(5-chloro-2-(1-(2,2-difluoroethyl)-1H-pyrazol-4-ylamino)-7H-pyrrolo[2,3-d]pyrimidin-4-ylamino)piperidin-1-yl)prop-2-en-1-one]	–

The next lines start with the compound.

SMILES	IC50 [1] [nM]	IC50 [2] [nM]	other results
C=CC(=O)N1CCC[C@@H](Nc2nc(Nc3cn(C)nc3C)nc3[nH]ccc23)C1 [Example 22, (R)-1-(3-(2-(1,3-dimethyl-1H-pyrazol-4-ylamino)-7H-pyrrolo[2,3-d]pyrimidin-4-ylamino)piperidin-1-yl)prop-2-en-1-one]	–	–	inhibition at 0.1 µM [1, 3]: 17.3%; inhibition at 0.1 µM [2]: 8.9%
C=CC(=O)N1CCC[C@@H](Nc2nc(Nc3cnoc3)nc3[nH]ccc23)C1 [Example 23, (R)-1-(3-(2-(isoxazol-4-ylamino)-7H-pyrrolo[2,3-d]pyrimidin-4-ylamino)piperidin-1-yl)prop-2-en-1-one]	0.9	13.9	–
C=CC(=O)N1CCC[C@@H](Nc2nc(Nc3cnn(CC(=O)NC)c3)nc3[nH]ccc23)C1 [Example 24, (R)-2-(4-(4-(1-acryloylpiperidin-3-ylamino)-7H-pyrrolo[2,3-d]pyrimidin-2-ylamino)-1H-pyrazol-1-yl)-N-methylacetamide]	0.4	15.3	–
C=CC(=O)Nc1cccc(Nc2nc(N[C@@H]3CCCN(C(=O)CC#N)C3)c3cc[nH]c3n2)c1 [Example 26, (R)-N-(3-(4-(1-(2-cyanoacetyl)piperidin-3-ylamino)-7H-pyrrolo[2,3-d]pyrimidin-2-ylamino)phenyl)acrylamide]	39.2	–	inhibition at 0.1 µM [2]: 10.3%
C=CC(=O)N1CC[C@@H](C)[C@@H](N(C)c2nc(Nc3ccc(N4CCN(C)CC4)cc3)nc3[nH]ccc23)C1 [Example 27, 1-((3R,4R)-4-methyl-3-(methyl(2-(4-(4-methylpiperazin-1-yl)phenylamino)-7H-pyrrolo[2,3-d]pyrimidin-4-yl)amino)piperidin-1-yl)prop-2-en-1-one]	–	–	inhibition at 1 µM ([1]; @1uM compound, printed in the JAK3 IC50 column): 32.8%; inhibition at 1 µM [2]: 48%
C=CC(=O)NC1CCCC(Nc2nc(Nc3ccc(N4CCN(C)CC4)cc3)nc3[nH]ccc23)C1 (stereo not shown) [Example 29, N-(3-(2-(4-(4-methylpiperazin-1-yl)phenylamino)-7H-pyrrolo[2,3-d]pyrimidin-4-ylamino)cyclohexyl)acrylamide]	66.2	–	inhibition at 1 µM [2]: 47.1%
C=CC(=O)N1CCC[C@@H](Nc2nc(Nc3ccc(N4CCN(C)CC4)cc3)nc3[nH]ncc23)C1 [Example 30, (R)-1-(3-(6-(4-(4-methylpiperazin-1-yl)phenylamino)-1H-pyrazolo [3,4-d]pyrimidin-4-ylamino)piperidin-1-yl)prop-2-en-1-one]	–	6	inhibition at 0.1 µM [1, 3]: 52.6%
C=CC(=O)N1CCC[C@@H](Nc2nc(Nc3cnn(CC)c3)nc3[nH]ncc23)C1 [Example 33, (R)-1-(3-(6-(1-ethyl-1H-pyrazol-4-ylamino)-1H-pyrazolo[3,4-d]pyrimidin-4-ylamino)piperidin-1-yl)prop-2-en-1-one]	4.9	1.6	–
C=CC(=O)N1CCC[C@@H](Nc2nc(Nc3cnn(CC(=O)NC)c3)nc3[nH]ncc23)C1 [Example 35, (R)-2-(4-(4-(1-acryloylpiperidin-3-ylamino)-1H-pyrazolo[3,4-d]pyrimidin-6-ylamino)-1H-pyrazol-1-yl)-N-methylacetamide]	5.2	2.1	–
C=CC(=O)N1CCC[C@@H](Nc2nc(Nc3ccc(N4CCN(C)CC4)cc3)nc3[nH]cc(Cl)c23)C1 [Example 36, (R)-1-(3-(5-chloro-2-(4-(4-methylpiperazin-1-yl)phenylamino)-7H-pyrrolo [2,3-d]pyrimidin-4-ylamino)piperidin-1-yl)prop-2-en-1-one]	1.1	16.5	–
C=CC(=O)N1CCC[C@@H](Nc2nc(Nc3cnn(CC)c3)nc3[nH]cc(Cl)c23)C1 [Example 37, (R)-1-(3-(5-chloro-2-(1-ethyl-1H-pyrazol-4-ylamino)-7H-pyrrolo[2,3-d]pyrimidin-4-ylamino)piperidin-1-yl)prop-2-en-1-one]	0.1	2.5	–
C=CC(=O)N1CCC[C@@H](Nc2nc(Nc3cnn(C(F)F)c3)nc3[nH]cc(Cl)c23)C1 [Example 38, (R)-1-(3-(5-chloro-2-(1-(difluoromethyl)-1H-pyrazol-4-ylamino)-7H-pyrrolo[2,3-d]pyrimidin-4-ylamino)piperidin-1-yl)prop-2-en-1-one]	0.1	4.3	–
C=CC(=O)N1CCC[C@@H](Nc2nc(Nc3cnn(CCN4CCOCC4)c3)nc3[nH]cc(Cl)c23)C1 [Example 40, (R)-1-(3-(5-chloro-2-(1-(2-morpholinoethyl)-1H-pyrazol-4-ylamino)-7H-pyrrolo [2,3-d]pyrimidin-4-ylamino)piperidin-1-yl)prop-2-en-1-one]	0.2	1.8	–
